Laboratory results from patent publication US20080108694A1, “Novel Macrocycles and Uses Thereof” (priority 2003, published 2008).
In brackets after ≈: the same amount, converted by molar mass. Where two headings read alike, the source gives them in different places. Each block holds one compound with its values, some of them ahead of it.

Tests used:
[1] = system: MCF7; assay: Alamar blue proliferation assay, growth inhibition of MCF7 breast cancer cells; type: cell-based, human; conditions: for IC50: Homo sapiens
Excerpt: Biological Evaluation of Cycloproparadicicol Analogues. As discussed earlier, it appears that the inhibition of Hsp90 induces the proteasomal degradation of various oncogenic proteins, thereby leading to inhibition of tumor cell growth. We hoped to evaluate our synthetic analogues for their growth inhibition activity against MCF breast cancer cells. […] Further modifications of 27α, however, decreased its potency.
Cell Culture. The human cancer line MCF7 was obtained from American Type Culture Collection (Manassas, Va., USA) and maintained in 1:1 mixture of DME:F12 supplemented with 10% heat-inactivated fetal bovine serum, 2 mM glutamine, 50 units/ml of penicillin and streptomycin, and incubated in a humidified 5% CO2/air atmosphere at 37° C. For the Alamar blue proliferation assay, 2×10^3 cells were plated in 96-well plates. Twenty four hours later, cells were treated with the compound for 72 or 120 hours. On day 3 or 5, Alamar Blue viability assay (AccuMe Westlake, Ohio) was performed as described elsewhere (White, M. J.; DiCaprio, M. J Greenberg, D. A. J. Neurosci. Methods 1996, 70, 195-200; incorporated herein by reference). IC50s were calculated as the doses of the compound required to inhibit cell growth by 50% of control values.

[2] = system: HER2; assay: Her2 degradation in drug-treated MCF-7 cells by immunoblotting; type: cell-based, human; conditions: for concentration at which Her2 is degraded: P85 control
Experimental: To confirm that the cytotoxicity was indeed due to the inhibition of Hsp90, we set out to investigate the degradation of Her2, one of the most sensitive client proteins of this chaperone. The expression levels of Her2 of drug-treated MCF-7 cells were analyzed using immunoblotting (FIG. 31). P85, used as a control, is not a client protein of Hsp90. As expected, the growth inhibition activities of the synthetic active analogues are reflected in their capacity to degrade Her2. […] Nonchlorinated difluoro compound 38 degraded Her2 at 1 μM, and its chlorinated counterpart 31, at 10 μM.
Immunoblotting. For immunoblotting, cells in culture were washed and harvested in PBS, and then lysed in NP-40 buffer (50 mMTris, pH 7.5, 1% Nonidet P-40, 150 mM NaCl, 2.5 mM Na3VO4, 10 mM phenylmethylsulfonyl fluoride, and 10 μM each leupeptin, aprotinin, and soybean trypsin inhibitor). Cell lysates were cleared by centrifugation at 14,000×g for 10 minutes, and supernatants were collected as the experimental samples. Protein concentrations were determined using BCA reagent (Pierce Chemical Co., Rockford, Ill.). Lysates were added to sample buffer [0.3125 M Tris-HCl (pH 6.8), 10% SDS, 50% glycerol, and 77.5 mg/ml DTT], and equal amounts of protein were resolved by 7% SDS-PAGE and transferred to nitrocellulose membranes. Blots were blocked in 5% nonfat milk in Tris-buffered saline [0.1% Tween 20, 10 mM Tris (pH 7.4), and 150 mM NaCl] and subsequently probed with antibody (HER2 rabbit polyclonal IgG, Santa Cruz Biotechnology, Santa Cruz, Calif.; and PI3 kinase P85, Upstate Cell Signaling Solutions, Lake Placid, N.Y.). After incubation with horseradish peroxidase-conjugated secondary antibodies, proteins were visualized by chemiluminescence using the ECL detection reagents (Amersham Corp., Piscataway, N.J.). To prepare lysate from xenograft tumors, tumor tissue was homogenized in 2% SDS lysis buffer for 30 s then processed as above.

[3] = system: breast cancer cell with wild type Rb; assay: Inhibition of breast cancer cell with wild type Rb; type: cell-based, human
Experimental: (§1) Growth assays were performed by seeding 10000 cells (MCF7, BT474 or N417) per well in 6-welldishes and incubating for 24 h before drug treatment. Drugs or vehicle were administered as outlined for each experiment, and cells were incubated for the time periods depicted and then the number quantified by a Coulter counter.

[4] = system: Hsp90; conditions: cited from earlier work
[5] = system: HER2; assay: Reduction of HER2 in MCF7 and BT474 cells (protein assay, gels); type: cell-based, human; conditions: tested at 0.5 μM through 5 μM
Experimental: As depicted in FIGS. 17 and 18, four analogues have been tested for their ability to reduce HER2 in MCF7 and BT474 cells. […] Furthermore, while the vinyl epoxide, a reactive moiety, may be responsible for undesired cytotoxicity, the cyclopropane is far more stabile to non-productive cellular nucleophiles.
The human cancer cell lines MCF7, BT474 and N417 were obtained from the American Type Culture Collection (Manassas, Va., USA) and maintained in a 1:1 mixture of DME:F12 supplemented with 2 mM glutamine, 50 U/mL penicillin, 50 U/mL streptomycin and 5% heat inactivated fetal bovie serum (Gemini Bioproducts) and incubated at 37° C. in 5% CO2.
Cells were grown to 60-70% confluence and exposed to drugs or DMSO vehicle for the indicated time periods. Lysates were prepared using 50 mM Tris pH 7.4, 2% SDS and 10% glycerol lysis buffer. Protein concentration was determined using the BCA kit (Pierce Chemical Co.) according to the manufacturer's instructions. Clarified protein lysates (20-50 μg) were electrophoretically resolved on denaturing SDS-PAGE, transferred to nitrocellulose and probed with the following primary antibodies: anti-Her2 (C-18).

[6] = system: small cell lung cancer cell line with defective Rb function; assay: Inhibition of small cell lung cancer cell line with defective Rb function; type: cell-based, human
Experimental: as §1

[7] = rcm bond
[8] = cited from earlier work
[9] = system: MCF7 cells; assay: Growth of MCF7 cells (HER2 overexpressed, Rb positive) treated with radicicol and analogues; type: cell-based, human
[10] = system: P. falciparum; conditions: cited from earlier work
[11] = system: KB cells; conditions: cited from earlier work
[12] = MCF7 cells, 72 h treatment, read-out: IC50 (pM) Values of Cycloproparadicicol Analogues and Aigialomycin D
[13] = MCF breast cancer cells, 72 h treatment
[14] = MCF7, MCF breast cancer cells, 72 h treatment, read-out: IC50 value

Compound: C[C@H]1CC=C[C@H]2OC(C)(C)O[C@H]2CCC(O[Si](C)(C)C(C)(C)C)C[C]23[Co]4[Co]2[C]43C(=O)O1.[C-]#[O+].[C-]#[O+].[C-]#[O+].[C-]#[O+].[C-]#[O+].[C-]#[O+] (some centres unmarked)
ring closure, yield of all isomers ([7]; from C=CC[C@H](C)OC(=O)[C]12[Co]3[Co]1[C]32CC(CC[C@@H]1OC(C)(C)O[C@@H]1C=C)O[Si](C)(C)C(C)(C)C.[C-]#[O+].[C-]#[O+].[C-]#[O+].[C-]#[O+].[C-]#[O+].[C-]#[O+]): 80%

Compound: C[C@@H]1C[C@H]2C[C@@H]2C=C/C=C/C(O[Si](C)(C)C(C)(C)C)CC#CC(=O)N1 (some centres unmarked)
ring closure, yield of all isomers ([7]; from C=C[C@H]1C[C@@H]1C[C@@H](C)NC(=O)C#CCC(/C=C/C=C/C)O[Si](C)(C)C(C)(C)C.[C-]#[O+].[C-]#[O+].[C-]#[O+].[C-]#[O+].[C-]#[O+].[C-]#[O+].[Co].[Co], 2 steps): 60%

Compound: C[C@@H]1C[C@H]2O[C@@H]2/C=C\C=C\C(=O)Cc2c(Cl)c(O)cc(O)c2C(=O)O1 [radicicol, reference compound]
inhibition of breast cancer cell with wild type Rb [3]: potent inhibitors | activity in in vivo (animal) models [8]: ineffective | inhibition of small cell lung cancer cell line with defective Rb function [6]: potent inhibitors | efficacy in side by side experiment with radicicol [9]: demonstrated efficacy

Compound: 17-alkylaminogeldanamycin [17-AGG, reference compound]
potency in cells with wild type Rb versus cells with defective Rb function [6]: much more potent against cells with wild type Rb than in cells with defective Rb function

Compound: C[C@@H]1C[C@H]2C[C@@H]2C=C/C=C/C(O[Si](C)(C)C(C)(C)C)C[C]23[Co]4[Co]2[C]43C(=O)O1.[C-]#[O+].[C-]#[O+].[C-]#[O+].[C-]#[O+].[C-]#[O+].[C-]#[O+] (some centres unmarked)
ring closure, yield of all isomers ([7]; from C=C[C@H]1C[C@@H]1C[C@@H](C)OC(=O)[C]12[Co]3[Co]1[C]32CC(/C=C/C=C/C)O[Si](C)(C)C(C)(C)C.[C-]#[O+].[C-]#[O+].[C-]#[O+].[C-]#[O+].[C-]#[O+].[C-]#[O+]): 57%

Compound: C[C@@H]1C[C@H]2C[C@@H]2/C=C\C=C\[C@@H](O)Cc2cc(O)cc(O)c2C(=O)O1 [27β]
IC50 [1, 12]: > 500000 pM | growth inhibition activity [1, 13]: inactive

Compound: CC(C)(C)[Si](C)(C)OC1/C=C/C=CCCCCOC(=O)[C]23[Co]4[Co]2[C]43C1.[C-]#[O+].[C-]#[O+].[C-]#[O+].[C-]#[O+].[C-]#[O+].[C-]#[O+] (centres unmarked)
ring closure, yield of all isomers ([7]; from C=CCCCCOC(=O)[C]12[Co]3[Co]1[C]32CC(/C=C/C=C/C)O[Si](C)(C)C(C)(C)C.[C-]#[O+].[C-]#[O+].[C-]#[O+].[C-]#[O+].[C-]#[O+].[C-]#[O+]): 71%

Compound: C[C@@H]1C[C@H]2C[C@@H]2C=C/C=C/C(O[Si](C)(C)C(C)(C)C)CC#CC(=O)O1 (some centres unmarked)
ring closure, yield of all isomers ([7]; from C=C[C@H]1C[C@@H]1C[C@@H](C)OC(=O)[C]12[Co]3[Co]1[C]32CC(/C=C/C=C/C)O[Si](C)(C)C(C)(C)C.[C-]#[O+].[C-]#[O+].[C-]#[O+].[C-]#[O+].[C-]#[O+].[C-]#[O+], 2 steps): 51%

Compound: C[C@H]1C/C=C/[C@@H](O)[C@@H](O)CC/C=C/c2cc(O)cc(O)c2C(=O)O1 [compound 46, Aigialomycin D]
IC50 against P. falciparum (antimalarial activity) [10]: 6.6 µg/mL (≈ 19.7 µM) | IC50 against KB cells (antitumor activity) [11]: 3.0 µg/mL (≈ 8.97 µM) | IC50 ([1]; MCF7, 72 h, read-out: IC50 (pM) Values of Cycloproparadicicol Analogues and Aigialomycin D): > 1e+07 pM | growth inhibition activity [1, 13]: significantly less active than the cycloproparadicicol derivatives | concentration at which Her2 is degraded [2]: > 10 µM

Compound: C[C@@H]1C[C@H]2C[C@@H]2/C=C\C=C\[C@H](O)Cc2cc(O)cc(O)c2C(=O)O1 [27α]
IC50 [1, 14]: 150000 pM | IC50 [1, 12]: 150000 pM | concentration at which Her2 is degraded [2]: 0.3 µM

Second part, led by results:

IC50 [1, 12]: 1e+07 pM
Compound: C[C@@H]1C[C@@H]2[C@@H](/C=C\C=C\C(=O)Cc3c(Cl)c(O)cc(O)c3C(=O)O1)C2(F)F [compound 31, Difluorocycloproparadicicol]
concentration at which Her2 is degraded [2]: 10 µM

IC50 [1, 12]: 282000 pM
Compound: C[C@@H]1C[C@H]2C[C@@H]2\C=C/C=C/C(=N/O)Cc2c(Cl)c(O)cc(O)c2C(=O)O1 [(E)-30]
capacity to degrade Her2 [2]: less effective

IC50 [1, 12]: > 1e+07 pM
Compound: CO[C@H]1/C=C/C=C\[C@H]2C[C@@H]2C[C@@H](C)OC(=O)c2c(O)cc(O)cc2C1 [29α]
growth inhibition activity [1, 13]: completely inactive

IC50 [1, 12]: 98000 pM
Compound: C[C@@H]1C[C@H]2C[C@@H]2\C=C/C=C/C(=N\O)Cc2c(Cl)c(O)cc(O)c2C(=O)O1 [(Z)-30]
potency relative to the corresponding (E)-isomer ([1]; MCF breast cancer cells, 72 h): 3 times | concentration at which Her2 is degraded [2]: 0.3 µM

IC50 [1, 12]: 3e+06 pM
Compound: C[C@@H]1C[C@@H]2[C@@H](/C=C\C=C\C(=O)Cc3cc(O)cc(O)c3C(=O)O1)C2(F)F [compound 38, Difluorocyclopropamonocilin]
concentration at which Her2 is degraded [2]: 1 µM

IC50 [1, 12]: 54000 pM
Compound: C[C@@H]1C[C@H]2C[C@@H]2/C=C\C=C\C(=O)Cc2c(Cl)c(O)cc(O)c2C(=O)O1 [compound 2, Cycloproparadicicol]
inhibition of breast cancer cell with wild type Rb [3]: potent inhibitors | binds to Hsp90 at [4]: ca. 160 nM | effectiveness in reducing HER2 relative to radicicol [5]: at least as effective, if not better than radicicol | inhibition of small cell lung cancer cell line with defective Rb function [6]: potent inhibitors | potency relative to 17-AGG in small cell lung cancer cell line with defective Rb function [6]: much more potent than 17-AGG | growth inhibition activity [1, 13]: most potent of the new compounds | concentration at which Her2 is degraded [2]: 0.3 µM

IC50 [1, 14]: 390000 pM | IC50 [1, 12]: 390000 pM
Compound: C[C@@H]1C[C@H]2C[C@@H]2/C=C\C=C\[C@H](O)Cc2c(Cl)c(O)cc(O)c2C(=O)O1 [28α]
